From publication PMC12441834, “Highly Potent and Subtype-Selective Sperm-Specific Potassium Channel SLO3 Inhibitors Display High Tissue Exposure in the Murine Female Reproductive Tract” (ACS Pharmacology & Translational Science, 2025)
Several values for one entry are separate records, joined by “and”; a condition that tells them apart may be missing. Equal values may be shown once.

Assays:
[1] = biological target: Serotonin (5-Hydroxytryptamine) 5-HT1A (Homo sapiens, UniProt P08908); experiment: LeadProfilingScreen radioligand binding
Sequence of Serotonin (5-Hydroxytryptamine) 5-HT1A (P08908 whole entry): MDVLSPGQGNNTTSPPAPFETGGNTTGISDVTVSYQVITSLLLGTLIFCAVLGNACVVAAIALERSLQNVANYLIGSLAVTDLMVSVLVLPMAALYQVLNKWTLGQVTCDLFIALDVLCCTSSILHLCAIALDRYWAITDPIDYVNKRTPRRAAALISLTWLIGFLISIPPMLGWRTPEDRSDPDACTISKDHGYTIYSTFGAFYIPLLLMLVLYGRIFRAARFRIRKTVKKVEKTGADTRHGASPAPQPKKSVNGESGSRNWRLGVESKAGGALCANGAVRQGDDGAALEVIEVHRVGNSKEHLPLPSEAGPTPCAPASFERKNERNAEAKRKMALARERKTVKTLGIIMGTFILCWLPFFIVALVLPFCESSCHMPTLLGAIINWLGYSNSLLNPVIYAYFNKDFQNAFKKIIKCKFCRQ

Muscarinic M3 = Muscarinic M3 (Homo sapiens, UniProt P20309); experiment: LeadProfilingScreen radioligand binding
Adenosine A3 = Adenosine A3 (Homo sapiens, UniProt P0DMS8); experiment: LeadProfilingScreen radioligand binding
Dopamine D4.4 = Dopamine D4.4 (Homo sapiens, UniProt P21917); experiment: LeadProfilingScreen radioligand binding
Sequence of Dopamine D4.4 (P21917 whole entry): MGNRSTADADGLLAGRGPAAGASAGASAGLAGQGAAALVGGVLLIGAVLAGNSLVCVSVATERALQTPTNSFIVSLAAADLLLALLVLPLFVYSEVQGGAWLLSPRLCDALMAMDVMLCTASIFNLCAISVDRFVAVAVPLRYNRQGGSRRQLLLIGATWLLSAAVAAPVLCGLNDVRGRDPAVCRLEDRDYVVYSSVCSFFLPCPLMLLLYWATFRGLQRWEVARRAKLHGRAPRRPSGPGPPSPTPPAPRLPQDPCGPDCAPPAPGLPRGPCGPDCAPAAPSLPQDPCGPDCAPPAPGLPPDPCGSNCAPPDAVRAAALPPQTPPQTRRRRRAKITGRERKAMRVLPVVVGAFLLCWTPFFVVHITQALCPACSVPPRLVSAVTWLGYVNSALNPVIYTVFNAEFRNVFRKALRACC

[2] = test system: GABAA, Flunitrazepam, Central; experiment: LeadProfilingScreen radioligand binding; design: species or system rat
[3] = test system: Calcium Channel L-Type, Dihydropyridine; experiment: LeadProfilingScreen radioligand binding; design: species or system rat
CYP3A4 = CYP3A4 (Homo sapiens, UniProt P08684); experiment: CYP450 inhibition; format: in vitro ADME; conditions: read-out: CYP450 Inhibition, 3A4
Sequence of CYP3A4 (P08684 whole entry, species assumed): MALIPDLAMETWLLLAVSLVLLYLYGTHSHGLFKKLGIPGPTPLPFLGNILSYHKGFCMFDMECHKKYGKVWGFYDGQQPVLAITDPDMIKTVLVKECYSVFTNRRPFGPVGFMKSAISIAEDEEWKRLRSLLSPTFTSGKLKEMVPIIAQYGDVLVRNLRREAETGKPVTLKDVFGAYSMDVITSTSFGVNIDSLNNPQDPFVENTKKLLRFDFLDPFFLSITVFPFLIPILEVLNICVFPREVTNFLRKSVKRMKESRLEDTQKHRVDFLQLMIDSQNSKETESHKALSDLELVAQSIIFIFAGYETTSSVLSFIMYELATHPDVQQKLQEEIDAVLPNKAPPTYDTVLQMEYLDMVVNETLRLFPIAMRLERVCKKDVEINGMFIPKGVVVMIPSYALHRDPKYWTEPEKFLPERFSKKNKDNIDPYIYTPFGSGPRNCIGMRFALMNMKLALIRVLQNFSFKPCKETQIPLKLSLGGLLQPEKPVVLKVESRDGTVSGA

Histamine H1 = Histamine H1 (Homo sapiens, UniProt P35367); experiment: LeadProfilingScreen radioligand binding
Neuropeptide Y Y2 = Neuropeptide Y Y2 (Homo sapiens, UniProt P49146); experiment: LeadProfilingScreen radioligand binding
[4] = biological target: Nicotinic Acetylcholine α3β4 (Homo sapiens, UniProt P30926+P32297); experiment: LeadProfilingScreen radioligand binding
Adenosine A1 = Adenosine A1 (Homo sapiens, UniProt P30542); experiment: LeadProfilingScreen radioligand binding
Sequence of Adenosine A1 (P30542 whole entry): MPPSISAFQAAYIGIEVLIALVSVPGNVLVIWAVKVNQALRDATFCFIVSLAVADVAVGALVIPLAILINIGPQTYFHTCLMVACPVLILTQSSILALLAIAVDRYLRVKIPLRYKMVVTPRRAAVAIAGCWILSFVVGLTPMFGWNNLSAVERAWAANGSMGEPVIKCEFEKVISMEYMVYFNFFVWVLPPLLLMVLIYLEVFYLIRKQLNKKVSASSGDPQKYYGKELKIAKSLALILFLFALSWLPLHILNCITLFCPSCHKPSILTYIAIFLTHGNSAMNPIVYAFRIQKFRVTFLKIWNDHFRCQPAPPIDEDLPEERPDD

Melatonin MT1 = Melatonin MT1 (Homo sapiens, UniProt P48039); experiment: LeadProfilingScreen radioligand binding
Calcium Channel N-Type = Calcium Channel N-Type (Rattus norvegicus, UniProt Q02294); experiment: LeadProfilingScreen radioligand binding
Adrenergic β1 = Adrenergic β1 (Homo sapiens, UniProt P08588); experiment: LeadProfilingScreen radioligand binding
Sequence of Adrenergic β1 (P08588 whole entry): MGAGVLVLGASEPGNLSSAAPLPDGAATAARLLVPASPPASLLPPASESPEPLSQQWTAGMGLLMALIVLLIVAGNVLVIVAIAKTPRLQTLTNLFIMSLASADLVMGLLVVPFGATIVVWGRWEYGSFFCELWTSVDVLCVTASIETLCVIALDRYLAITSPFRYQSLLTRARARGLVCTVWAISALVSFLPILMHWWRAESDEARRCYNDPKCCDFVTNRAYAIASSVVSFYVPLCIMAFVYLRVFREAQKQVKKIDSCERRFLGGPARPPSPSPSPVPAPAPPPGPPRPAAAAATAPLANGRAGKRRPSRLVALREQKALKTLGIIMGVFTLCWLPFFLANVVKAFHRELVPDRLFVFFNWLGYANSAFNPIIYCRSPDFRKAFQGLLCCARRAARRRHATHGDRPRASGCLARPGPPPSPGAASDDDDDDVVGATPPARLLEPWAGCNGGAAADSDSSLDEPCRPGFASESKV

CYP2C9 = CYP2C9 (Homo sapiens, UniProt P11712); experiment: CYP450 inhibition; format: in vitro ADME; conditions: read-out: CYP450 Inhibition, 2C9
Sequence of CYP2C9 (P11712 whole entry, species assumed): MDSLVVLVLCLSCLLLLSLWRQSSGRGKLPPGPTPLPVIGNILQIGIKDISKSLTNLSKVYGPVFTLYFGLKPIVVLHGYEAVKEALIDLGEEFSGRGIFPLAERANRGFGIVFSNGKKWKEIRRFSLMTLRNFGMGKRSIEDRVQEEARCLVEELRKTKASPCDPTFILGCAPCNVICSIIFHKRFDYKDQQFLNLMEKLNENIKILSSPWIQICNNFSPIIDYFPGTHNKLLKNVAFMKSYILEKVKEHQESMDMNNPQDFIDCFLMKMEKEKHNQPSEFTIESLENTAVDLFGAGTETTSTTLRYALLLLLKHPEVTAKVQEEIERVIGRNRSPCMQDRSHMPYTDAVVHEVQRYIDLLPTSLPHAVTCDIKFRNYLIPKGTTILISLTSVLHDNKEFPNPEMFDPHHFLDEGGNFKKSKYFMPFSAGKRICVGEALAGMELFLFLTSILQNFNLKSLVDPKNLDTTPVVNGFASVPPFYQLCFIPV

GABAB1A = GABAB1A (Homo sapiens, UniProt Q9UBS5); experiment: LeadProfilingScreen radioligand binding
Sequence of GABAB1A (Q9UBS5 15-961 limits assumed): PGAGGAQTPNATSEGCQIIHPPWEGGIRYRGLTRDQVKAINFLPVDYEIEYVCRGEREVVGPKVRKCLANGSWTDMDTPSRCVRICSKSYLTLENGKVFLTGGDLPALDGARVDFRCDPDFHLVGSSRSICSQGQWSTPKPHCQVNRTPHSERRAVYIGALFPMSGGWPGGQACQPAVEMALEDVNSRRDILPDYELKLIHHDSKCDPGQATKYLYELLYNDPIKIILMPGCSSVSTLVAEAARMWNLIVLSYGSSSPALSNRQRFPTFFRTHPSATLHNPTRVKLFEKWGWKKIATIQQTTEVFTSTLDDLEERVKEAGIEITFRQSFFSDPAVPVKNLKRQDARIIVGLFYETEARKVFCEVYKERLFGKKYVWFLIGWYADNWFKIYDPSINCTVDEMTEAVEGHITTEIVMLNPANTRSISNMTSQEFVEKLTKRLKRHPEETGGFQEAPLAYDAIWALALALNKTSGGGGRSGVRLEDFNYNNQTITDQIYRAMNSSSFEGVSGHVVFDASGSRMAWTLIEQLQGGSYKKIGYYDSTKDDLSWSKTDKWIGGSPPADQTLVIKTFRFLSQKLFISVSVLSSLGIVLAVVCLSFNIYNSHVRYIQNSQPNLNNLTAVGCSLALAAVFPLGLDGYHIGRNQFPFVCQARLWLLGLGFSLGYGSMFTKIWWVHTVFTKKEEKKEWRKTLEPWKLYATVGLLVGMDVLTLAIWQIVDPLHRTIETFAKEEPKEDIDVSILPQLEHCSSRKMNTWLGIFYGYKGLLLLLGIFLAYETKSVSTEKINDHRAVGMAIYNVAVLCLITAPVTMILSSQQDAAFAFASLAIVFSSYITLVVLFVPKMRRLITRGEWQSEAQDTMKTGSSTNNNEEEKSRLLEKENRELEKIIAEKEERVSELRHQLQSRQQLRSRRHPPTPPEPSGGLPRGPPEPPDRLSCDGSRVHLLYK
Sequence of GABAB1A (O75899 42-941 partner): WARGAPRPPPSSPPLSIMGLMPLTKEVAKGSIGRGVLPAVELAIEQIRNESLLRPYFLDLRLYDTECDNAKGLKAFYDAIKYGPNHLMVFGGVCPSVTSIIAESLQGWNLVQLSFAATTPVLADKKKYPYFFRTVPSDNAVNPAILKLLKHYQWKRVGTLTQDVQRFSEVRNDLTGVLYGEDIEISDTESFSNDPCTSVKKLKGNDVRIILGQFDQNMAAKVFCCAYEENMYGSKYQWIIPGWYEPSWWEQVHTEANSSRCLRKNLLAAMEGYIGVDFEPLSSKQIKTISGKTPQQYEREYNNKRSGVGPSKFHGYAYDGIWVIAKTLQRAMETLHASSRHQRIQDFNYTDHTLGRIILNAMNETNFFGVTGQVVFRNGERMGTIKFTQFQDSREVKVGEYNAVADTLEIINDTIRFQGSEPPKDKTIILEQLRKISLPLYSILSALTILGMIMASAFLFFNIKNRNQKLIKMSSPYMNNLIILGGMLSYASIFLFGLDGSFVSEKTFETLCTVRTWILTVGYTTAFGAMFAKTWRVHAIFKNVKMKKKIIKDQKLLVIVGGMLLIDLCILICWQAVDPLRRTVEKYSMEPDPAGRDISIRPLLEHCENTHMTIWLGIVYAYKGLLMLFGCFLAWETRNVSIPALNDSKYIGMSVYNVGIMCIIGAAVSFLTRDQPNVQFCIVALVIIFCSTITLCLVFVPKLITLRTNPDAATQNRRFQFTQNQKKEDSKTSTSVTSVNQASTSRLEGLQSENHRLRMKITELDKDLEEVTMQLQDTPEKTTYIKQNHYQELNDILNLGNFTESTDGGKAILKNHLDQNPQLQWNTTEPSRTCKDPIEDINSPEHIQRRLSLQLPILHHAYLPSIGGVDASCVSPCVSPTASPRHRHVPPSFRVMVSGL

[5] = Multispecies hepatocyte MetID; format: in vitro ADME, minipig; conditions: 4 h incubation with hepatocytes, 10 μM
Glutamate, NMDA, Agonism = experiment: LeadProfilingScreen radioligand binding; design: species or system rat
Opiate κ (OP2, KOP) = Opiate κ (OP2, KOP) (Homo sapiens, UniProt P41145); experiment: LeadProfilingScreen radioligand binding
Sequence of Opiate κ (OP2, KOP) (P41145 whole entry): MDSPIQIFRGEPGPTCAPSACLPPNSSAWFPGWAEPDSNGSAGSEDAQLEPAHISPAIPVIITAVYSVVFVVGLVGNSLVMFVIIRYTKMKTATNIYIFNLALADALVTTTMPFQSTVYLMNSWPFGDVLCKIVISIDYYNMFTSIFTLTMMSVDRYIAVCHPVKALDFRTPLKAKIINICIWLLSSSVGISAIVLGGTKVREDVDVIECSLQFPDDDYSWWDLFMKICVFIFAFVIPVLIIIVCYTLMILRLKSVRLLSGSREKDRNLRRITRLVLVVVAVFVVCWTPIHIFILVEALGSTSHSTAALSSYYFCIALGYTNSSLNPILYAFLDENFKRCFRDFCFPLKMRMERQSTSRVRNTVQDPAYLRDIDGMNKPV

Glutamate, Kainate = experiment: LeadProfilingScreen radioligand binding; design: species or system rat
Purinergic P2X = experiment: LeadProfilingScreen radioligand binding; design: species or system rat
Histamine H3 = Histamine H3 (Homo sapiens, UniProt Q9Y5N1); experiment: LeadProfilingScreen radioligand binding
[6] = test system: Purinergic P2Y, Non-Selective; experiment: LeadProfilingScreen radioligand binding; design: species or system rat

SMILES | inhibition at 10 µM [1] | inhibition at 10 µM (Muscarinic M3) | inhibition at 10 µM (Adenosine A3) | inhibition at 10 µM (Dopamine D4.4) | % inhibition at 10 μM [2] | % inhibition at 10 μM [3] | IC50 (CYP3A4) | inhibition at 10 µM (Histamine H1) | inhibition at 10 µM (Neuropeptide Y Y2) | inhibition at 10 µM [4] | inhibition at 10 µM (Adenosine A1) | inhibition at 10 µM (Melatonin MT1) | inhibition at 10 µM (Calcium Channel N-Type) | inhibition at 10 µM (Adrenergic β1) | IC50 (CYP2C9) | inhibition at 10 µM (GABAB1A) | % of Parent Related Material, Pig [5] | % inhibition at 10 μM (Glutamate, NMDA, Agonism) | inhibition at 10 µM (Opiate κ (OP2, KOP)) | % inhibition at 10 μM (Glutamate, Kainate) | also measured
Cc1cc(Cl)cc2sc(O[C@H]3CCN(C(=O)CCCS(=O)(=O)c4cccc(Br)c4)C[C@H]3F)nc12 [VU6047606] | -2% | 13% | 43% | -8% | 11% | 93% | > 30 µM | 11% | 10% | -7% | 5% | 19% | -1% | 11% | > 30 µM | 12% | 93.66% and > 82% | -18% | -13% | -6% | % inhibition at 10 μM (Purinergic P2X): 1%; inhibition at 10 µM (Histamine H3): 11%; % inhibition at 10 μM [6]: 7%
O=C(c1ccc(OCc2ccc(OC(F)(F)F)cc2)cc1)N1CCN(c2ccc(C(F)(F)F)cn2)CC1 [VU6032735] | -1% | 7% | 9% | -5% | 5% | 76% | > 30 µM | 14% | 3% | -6% | 12% | 8% | 2% | 8% | > 30 µM | 31% | > 98% | -8% | -16% | -4% | % inhibition at 10 μM (Purinergic P2X): 1%; inhibition at 10 µM (Histamine H3): -16%; % inhibition at 10 μM [6]: 24%
